What was measured:
[1] = Critical micelle concentration (CMC) in water; assay type: physicochemical
From the text: According to this embodiment, the salt form is selected by measuring its CMC in water by methods known in the art, for example, by the use of a surface tensiometer. […] The CMC provides a measure of the surface activity of the particular drug salt.

[2] = tested on: skin of hairless guinea pigs; test: Urinary excretion kinetics / skin depot of fluoxetine; assay type: in vivo, hairless guinea pig
From the text: (§1) Skin sites on hairless guinea pigs were lightly washed.

[3] = cited from earlier work
[4] = tested on: skin of hairless guinea pigs; test: Paroxetine gels skin irritation at equivalent flux; assay type: in vivo, hairless guinea pig; settings: FIG. 8
From the text: as §1
All paroxetine gels contained paroxetine base, 40% ethanol, 35% propylene glycol, water, and 5% HPMC. Placebo gels were identical with water replacing the paroxetine. Paroxetine acetate gels contained paroxetine base, acetic acid, water, and 2% HEC. […] All paroxetine gels contained approximately 28 μCi ^3 H paroxetine per ml.

Work on `CN(C)CCCN1c2ccccc2Sc2ccc(Cl)cc21` [chlorpromazine acetate] yielded a CMC [1] of 0.02 M.

For `CNCCC(Oc1ccc(C(F)(F)F)cc1)c1ccccc1` (centres unmarked) [fluoxetine acetate], the “skin depot (urinary excretion)” value ([2]; acidified with excess acetic acid to pH 5) was “the skin depot is eliminated”, the “kinetics of elimination (urinary excretion)” value ([2]; acidified with excess acetic acid to pH 5, compared with intravenous administration) was “close to that observed following intravenous administration of the drug” and the “skin depot (urinary excretion)” value ([2]; fluoxetine acetate, pH 6.5) was “the skin depot is reduced but is still present”. It also gave a CMC [1] of 0.05 M.

In the case of `CNCCC(Oc1ccc(C(F)(F)F)cc1)c1ccccc1` (centres unmarked) [fluoxetine base, fluoxetine], the pKa [3] is given as 9.7 and the “skin depot (urinary excretion)” value ([2]; fluoxetine base) is given as “a skin depot is observed”.

In the case of `Fc1ccc([C@@H]2CCNC[C@H]2COc2ccc3c(c2)OCO3)cc1` [paroxetine acetate], the “irritation vs paroxetine base gels at equivalent flux” value [4] is reported as “reduced”.

Reference: patent publication US6203817A (priority 1998, dated 2001)
